Reference: patent US9663496B2, “AMPK-activating heterocyclic compounds and methods for using the same” (Rigel Pharmaceuticals, Inc., priority 2010, dated 2017)

target: AMPK; test: AMPK activation, enzyme-linked immunosorbent assay; type: biochemical; settings: EC50 for AMPK activation, ELISA
Outline: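 Compounds were tested for their capacity to activate the kinase using standard, commercially available kit reagents and procedures.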

Row | EC50 | Compound
1 | < 500 nM | CN(C)C(=O)c1ccc(OC2CCN(C(=O)c3ccc(C(=O)NC4CCN(Cc5ccc(C#N)cc5)CC4)nc3)CC2)cc1 [Compound 357, N-(1-(4-cyanobenzyl)piperidin-4-yl)-5-(4-(4-(dimethylcarbamoyl)phenoxy)piperidine-1-carbonyl)picolinamide]
2 | < 500 nM | CC(=O)c1ccc(OC2CCN(C(=O)c3ccc(C(=O)NC4CCN(Cc5ccc(C#N)cc5)CC4)nc3)CC2)cc1 [Compound 358, 5-(4-(4-acetylphenoxy)piperidine-1-carbonyl)-N-(1-(4-cyanobenzyl)piperidin-4-yl)picolinamide]
3 | < 500 nM | CC(=O)c1ccc(OC2CCN(C(=O)c3ccc(C(=O)Nc4ccc(Oc5ccc(F)cc5)nc4)nc3)CC2)cc1 [Compound 359, 5-(4-(4-acetylphenoxy)piperidine-1-carbonyl)-N-(6-(4-fluorophenoxy)pyridin-3-yl)picolinamide]
4 | < 500 nM | CN(C)C(=O)c1ccc(OC2CCN(C(=O)c3ccc(C(=O)Nc4ccc(Oc5ccc(F)cc5)nc4)nc3)CC2)cc1 [Compound 360, 5-(4-(4-(dimethylcarbamoyl)phenoxy)piperidine-1-carbonyl)-N-(6-(4-fluorophenoxy)pyridin-3-yl)picolinamide]
5 | < 500 nM | N#Cc1ccc(CN2CCC(NC(=O)c3ccc(N4CCC(Oc5ccc(C(F)(F)F)cc5)CC4)nn3)CC2)cc1 [Compound 361, N-(1-(4-cyanobenzyl)piperidin-4-yl)-6-(4-(4-(trifluoromethyl)phenoxy)piperidin-1-yl)pyridazine-3-carboxamide]
6 | < 500 nM | COc1ccc(C(=O)C2CCN(c3ccc(C(=O)NC4CCN(Cc5ccc(C#N)cc5)CC4)nn3)CC2)cc1 [Compound 362, N-(1-(4-cyanobenzyl)piperidin-4-yl)-6-(4-(4-methoxybenzoyl)piperidin-1-yl)pyridazine-3-carboxamide]
7 | < 500 nM | N#Cc1ccc(CN2CCC(NC(=O)c3ccc(C(=O)N4CCC(Oc5ccc([N+](=O)[O-])cc5)CC4)nc3)CC2)cc1 [Compound 363, N-(1-(4-cyanobenzyl)piperidin-4-yl)-6-(4-(4-nitrophenoxy)piperidine-1-carbonyl)nicotinamide]
8 | < 500 nM | N#Cc1ccc(CN2CCC(NC(=O)c3ccc(C(=O)N4CCC(Oc5ccc(N)cc5)CC4)nc3)CC2)cc1 [Compound 364, 6-(4-(4-aminophenoxy)piperidine-1-carbonyl)-N-(1-(4-cyanobenzyl)piperidin-4-yl)nicotinamide]
9 | < 500 nM | N#Cc1ccc(CN2CCC(NC(=O)c3ccc(C(=O)N4CCC(C(=O)c5ccc(N6CCCC6)cc5)CC4)cn3)CC2)cc1 [Compound 365, N-(1-(4-cyanobenzyl)piperidin-4-yl)-5-(4-(4-(pyrrolidin-1-yl)benzoyl)piperidine-1-carbonyl)picolinamide]
10 | < 500 nM | CC(=O)Nc1ccc(OC2CCN(C(=O)c3ccc(C(=O)NC4CCN(Cc5ccc(C#N)cc5)CC4)cn3)CC2)cc1 [Compound 366, 6-(4-(4-acetamidophenoxy)piperidine-1-carbonyl)-N-(1-(4-cyanobenzyl)piperidin-4-yl)nicotinamide]
11 | > 10000 nM | CS(=O)(=O)Nc1ccc(OC2CCN(C(=O)c3ccc(C(=O)NC4CCN(Cc5ccc(C#N)cc5)CC4)cn3)CC2)cc1 [Compound 367, N-(1-(4-cyanobenzyl)piperidin-4-yl)-6-(4-(4-(methylsulfonamido)phenoxy)piperidine-1-carbonyl)nicotinamide]
12 | < 500 nM | O=C(Nc1ccc(Oc2ccc(F)cc2)nc1)c1ccc(C(=O)N2CCC(C(=O)c3ccc(N4CCCC4)cc3)CC2)cn1 [Compound 368, N-(6-(4-fluorophenoxy)pyridin-3-yl)-5-(4-(4-(pyrrolidin-1-yl)benzoyl)piperidine-1-carbonyl)picolinamide]
13 | < 500 nM | N#Cc1ccc(CN2CCC(NC(=O)c3ccc(C(=O)N4CCC(C(=O)c5ccc(C#N)cc5)CC4)cn3)CC2)cc1 [Compound 369, 5-(4-(4-cyanobenzoyl)piperidine-1-carbonyl)-N-(1-(4-cyanobenzyl)piperidin-4-yl)picolinamide]
14 | < 500 nM | CN(C)c1ccc(OC2CCN(C(=O)c3ccc(C(=O)NC4CCN(Cc5ccc(C#N)cc5)CC4)cn3)CC2)cc1 [Compound 370, N-(1-(4-cyanobenzyl)piperidin-4-yl)-6-(4-(4-(dimethylamino)phenoxy)piperidine-1-carbonyl)nicotinamide]
15 | > 10000 nM | N#Cc1ccc(CN2CCC(NC(=O)c3ccc(C(=O)N4CCC(Oc5ccc(NC(=O)CCOCCOCCOCCOCCNC(=O)CCC[C@@H]6SC[C@@H]7NC(=O)N[C@@H]76)cc5)CC4)nc3)CC2)cc1 [Compound 371, N-(1-(4-cyanobenzyl)piperidin-4-yl)-6-(4-(4-(17-oxo-20-((3aS,4S,6aR)-2-oxohexahydro-1H-thieno[3,4-d]imidazol-4-yl)-4,7,10,13-tetraoxa-16-azaicosanamido)phenoxy)piperidine-1-carbonyl)nicotinamide]
16 | < 500 nM | CSc1ccc(C(=O)C2CCN(C(=O)c3ccc(C(=O)NC4CCN(Cc5ccc(C#N)cc5)CC4)nc3)CC2)cc1 [Compound 372, N-(1-(4-cyanobenzyl)piperidin-4-yl)-5-(4-(4-(methylthio)benzoyl)piperidine-1-carbonyl)picolinamide]

Row | EC50 | Compound
17 | > 10000 nM | C[S+]([O-])c1ccc(C(=O)C2CCN(C(=O)c3ccc(C(=O)NC4CC[N+]([O-])(Cc5ccc(C#N)cc5)CC4)nc3)CC2)cc1 (centres unmarked) [Compound 374, 1-(4-cyanobenzyl)-4-(5-(4-(4-(methylsulfinyl)benzoyl)piperidine-1-carbonyl)picolinamido) piperidine 1-oxide]
18 | < 500 nM | N#Cc1ccc(CN2CCC(NC(=O)c3ccc(C(=O)N4CCC(C(=O)c5ccc(-n6cccn6)cc5)CC4)cn3)CC2)cc1 [Compound 375, 5-(4-(4-(1H-pyrazol-1-yl)benzoyl)piperidine-1-carbonyl)-N-(1-(4-cyanobenzyl)piperidin-4-yl)picolinamide]
19 | < 500 nM | N#Cc1ccc(CN2CCC(NC(=O)c3ccc(C(=O)N4CCC(C(=O)c5ccc(N6CCOCC6)cc5)CC4)cn3)CC2)cc1 [Compound 376, N-(1-(4-cyanobenzyl)piperidin-4-yl)-5-(4-(4-morpholinobenzoyl)piperidine-1-carbonyl)picolinamide]
20 | < 500 nM | N#Cc1ccc(CN2CCC(NC(=O)c3ccc(C(=O)N4CCC(C(=O)c5ccc(N6CCCC6)cc5)CC4)nc3)CC2)cc1 [Compound 377, N-(1-(4-cyanobenzyl)piperidin-4-yl)-6-(4-(4-(pyrrolidin-1-yl)benzoyl)piperidine-1-carbonyl)nicotinamide]
21 | < 500 nM | COc1ccc(OC2CCN(C(=O)c3ccc(C(=O)NC4CCN(Cc5ccc(C#N)cc5)CC4)cn3)CC2)c([N+](=O)[O-])c1 [Compound 378, N-(1-(4-cyanobenzyl)piperidin-4-yl)-6-(4-(4-methoxy-2-nitrophenoxy)piperidine-1-carbonyl)nicotinamide]
22 | < 500 nM | O=C(Nc1ccc(Oc2ccc(F)cc2)nc1)c1ccc(C(=O)N2CCC(C(=O)c3ccc(N4CCOCC4)cc3)CC2)cn1 [Compound 379, N-(6-(4-fluorophenoxy)pyridin-3-yl)-5-(4-(4-morpholinobenzoyl)piperidine-1-carbonyl)picolinamide]
23 | < 500 nM | CN1CCN(c2ccc(C(=O)C3CCN(C(=O)c4ccc(C(=O)NC5CCN(Cc6ccc(C#N)cc6)CC5)nc4)CC3)cc2)CC1 [Compound 380, N-(1-(4-cyanobenzyl)piperidin-4-yl)-5-(4-(4-(4-methylpiperazin-1-yl)benzoyl)piperidine-1-carbonyl)picolinamide]
24 | < 500 nM | O=C(NC1CCN(Cc2ccc(F)cc2)CC1)c1ccc(C(=O)N2CCC(C(=O)c3ccc(N4CCCC4)cc3)CC2)nc1 [Compound 381, N-(1-(4-fluorobenzyl)piperidin-4-yl)-6-(4-(4-(pyrrolidin-1-yl)benzoyl)piperidine-1-carbonyl)nicotinamide]
25 | < 500 nM | O=C(Nc1ccc(Oc2ccc(F)cc2)nc1)c1ccc(C(=O)N2CCC(C(=O)c3ccc(N4CCCC4)cc3)CC2)nc1 [Compound 382, N-(6-(4-fluorophenoxy)pyridin-3-yl)-6-(4-(4-(pyrrolidin-1-yl)benzoyl)piperidine-1-carbonyl)nicotinamide]
26 | > 10000 nM | COc1ccc(OC2CCN(C(=O)c3ccc(C(=O)NC4CCN(Cc5ccc(C#N)cc5)CC4)cn3)CC2)c(NC(C)=O)c1 [Compound 383, 6-(4-(2-acetamido-4-methoxyphenoxy)piperidine-1-carbonyl)-N-(1-(4-cyanobenzyl)piperidin-4-yl)nicotinamide]
27 | 500 to 1000 nM | COc1ccc(OC2CCN(C(=O)c3ccc(C(=O)NC4CCN(Cc5ccc(C#N)cc5)CC4)cn3)CC2)c(N)c1 [Compound 384, 6-(4-(2-amino-4-methoxyphenoxy)piperidine-1-carbonyl)-N-(1-(4-cyanobenzyl)piperidin-4-yl)nicotinamide]
28 | > 10000 nM | COc1ccc(OC2CCN(C(=O)c3ccc(C(=O)NC4CCN(Cc5ccc(C#N)cc5)CC4)cn3)CC2)c(N(C)C)c1 [Compound 385, N-(1-(4-cyanobenzyl)piperidin-4-yl)-6-(4-(2-(dimethylamino)-4-methoxyphenoxy)piperidine-1-carbonyl)nicotinamide]
29 | > 10000 nM | N#Cc1ccc(CN2CCC(NC(=O)c3ccc(C(=O)NC4CCN(Cc5ccc(C#N)cc5)CC4)nn3)CC2)cc1 [Compound 386, N3,N6-bis(1-(4-cyanobenzyl)piperidin-4-yl)pyridazine-3,6-dicarboxamide]
30 | < 500 nM | COc1ccc(C(=O)C2CCN(C(=O)c3ccc(C(=O)NC4CCN(Cc5ccc(C#N)cc5)CC4)nn3)CC2)cc1 [Compound 387, N-(1-(4-cyanobenzyl)piperidin-4-yl)-6-(4-(4-methoxybenzoyl)piperidine-1-carbonyl)pyridazine-3-carboxamide]
31 | 1000 to 5000 nM | COc1ccc(OC2CCN(C(=O)c3ccc(C(=O)NC4CCN(Cc5ccc(C#N)cc5)CC4)cn3)CC2)c(NS(C)(=O)=O)c1 [Compound 389, N-(1-(4-cyanobenzyl)piperidin-4-yl)-6-(4-(4-methoxy-2-(methylsulfonamido)phenoxy)piperidine-1-carbonyl)nicotinamide]
32 | < 500 nM | CC(=O)c1ccc(OC2CCN(C(=O)c3ccc(C(=O)NC4CCN(Cc5ccc(C#N)cc5)CC4)cn3)CC2)cc1 [Compound 390, 6-(4-(4-acetylphenoxy)piperidine-1-carbonyl)-N-(1-(4-cyanobenzyl)piperidin-4-yl)nicotinamide]
